Patent US20230099031A1, “BIFUNCTIONAL AGENTS FOR PROTEIN RECRUITMENT AND/OR DEGRADATION” (Orionis Biosciences, Inc., priority 2019, published 2023)
Like-named read-outs stand apart in the source and are kept apart here.

Key:
CRBN = target: T1, CRBN (Homo sapiens, UniProt Q96SW2); test: Competition Assay: MAPPIT-like, competition with trimethoprim-lenalidomide hybrid ligand for binding to CRBN in HEK293T cells; format: cell-based
T1 construct: expressed in transfected cells; host or cells: HEK293T
Description: A bait protein (protein A) is expressed as a fusion protein in which it is genetically fused to an engineered intracellular receptor domain of the leptin receptor, which is itself fused to the extracellular domain of the erythropoietin (Epo) receptor. Binding of Epo ligand to the EpoR component results in activation of receptor-associated intracellular JAK2. However, activated JAK2 cannot activate the leptin receptor to trigger STAT3 binding and its phosphorylation because its tyrosine residues, normally phosphorylated by activated JAK2, have been mutated. Reconstitution of a JAK2 phosphorylatable STAT3 docking site is instead created through interaction of a protein B with protein A, whereby protein B is fused to a cytoplasmic domain of the gp130 receptor (which now harbors appropriate tyrosine resides recognized by the activated JAK2 kinase). Thus, physical interaction of protein A with protein B reconstitutes and Epo triggers JAK2-STAT3 signaling pathway activation. Activation of STAT3 can be monitored by introduction of a STAT3-responsive reporter gene, including a luciferase-encoding gene or a gene encoding a fluorescent marker such as GFP or some other type of fluorescent protein (EGF etc.). In this manner, the MAPPIT assay provides a versatile assay to assess such recombinant protein-protein interactions, or compound- or hybrid ligand-induced protein-protein interactions, in intact cells.
Formation of the complex results in activation of a STAT-responsive luciferase reporter gene. That signal is set to 100% luciferase activity. In a separate sample set up, cells are prepared in the same manner but, in addition, co-incubated with a test compound whose interaction with CRBN is investigated. […] Increasing concentrations of test compound are assessed to determine CRBN binding efficiency as determined in this type of ligand competition experiment in living cells. Specificity of signal inhibition is assessed by a parallel experimental set up in which test compound effect is assessed for inhibition of signal generated by a control gp130 fusion protein (CTRL) that directly binds to the DHFR-fusion protein in the absence of hybrid ligand (i.e. a direct interaction of the proteins).
In more detail, HEK293T cells are cultured in Dulbecco's modified Eagle's medium supplemented with 10% fetal calf serum, incubated at 37° C., 8% CO2. […] Data points represent the average luciferase activity of triplicate samples derived from cells treated with leptin+test compound for the REM2 control (CTRL) or cells treated with leptin+hybrid ligand+test compound (CRBN) relative to leptin (CTRL) or leptin+hybrid ligand (CRBN) only treated samples (the signals obtained in absence of added test compound for both cases is set at 100% of luciferase activity on y-axis). Error bars represent standard deviations. Curves are fit using 4-parameter nonlinear regression in […] PRISM software

SALL4 = target: T2, SALL4 (Homo sapiens, UniProt Q96SW2+Q9UJQ4); test: Recruitment Assay (MAPPIT-like): SALL4 recruitment, pSEL-SALL4+pMG1-CRBN; format: cell-based; details: recruitment of SALL4, protocol of Example 2; read-out: EC50_SALL4
T2 construct: Full size proteins are fused for each of the target proteins tested; expressed in transfected cells; host or cells: HEK293T
Description: In this experimental set-up, cells are transfected with a construct encoding a CRBN-fusion protein and another one encoding a substrate-fusion protein. Test compound activity is assessed with increasing concentrations of test compounds (dose-response studies) to monitor the ability to promote CRBN-ligand-induced protein interaction.
Full size proteins are fused for each of the target proteins tested, except in the case of IKZF1 where isoform 7 is used, and BRD4, where isoform 3 is applied. For the study, the following construct combinations are used: IKZF1 recruitment: pSEL-CRBN+pMG1-IKZF1(isoform 7); ASS1 recruitment: pSEL-CRBN+pMG1-ASS1; SALL4 recruitment: pSEL-SALL4+pMG1-CRBN; DHFR recruitment: pCLG-DHFR+pMG1-CRBN; ESR1 recruitment: pSEL-CRBN+pMG1-ESR1; BRD4 recruitment: pSEL-CRBN+pMG1-BRD4(isoform 3). Cells are treated with erythropoietin (Epo; where pSEL-type receptor fusions constructs are used) or leptin (in the case pCLG-type receptor fusion constructs are applied) without or with the indicated dose of test compound at 24 hours after transfection. Luciferase activity is measured 24 hours after test compound treatment using the Luciferase Assay System kit (PROMEGA, Madison, Wis.) with an Ensight plate reader (PERKIN ELMER LIFE SCIENCES, Waltham, Mass.). Data points depict fold induction of the average luciferase activity of triplicate samples from Epo or leptin+test compound treated cells versus Epo or leptin only treated cells. Error bars represent standard deviations. Curves are fit using 4-parameter nonlinear regression in […] PRISM software.

[1] = protocol and reagents of Example 1, read-out: IC50 Competition
[2] = HEK293T cells, 300 nM trimethoprim-lenalidomide hybrid ligand, luciferase 24 hours after compound treatment, read-out: Competition IC50

SMILES	IC50 (CRBN; [1])	EC50 (SALL4)	IC50 (CRBN; [2])
O=C1CCC(N2Cc3cc(Nc4ncc5[nH]cnc5n4)ccc3C2=O)C(=O)N1 (stereo not drawn) [Compound C80376, 3-[1-oxo-5-(7H-purin-2-ylamino)isoindolin-2-yl]piperidine-2,6-dione]		559 nM	
O=C1CCC(N2Cc3ccccc3C2)C(=O)N1 (stereo not drawn) [Compound C87699, 3-isoindolin-2-ylpiperidine-2,6-dione]	19600 nM	4820 nM	
Cc1ccc2c(=O)n(C3CCC(=O)NC3=O)nnc2c1 (stereo not drawn) [Compound C17800, 3-(7-methyl-4-oxo-1,2,3-benzotriazin-3-yl)piperidine-2,6-dione]	21900 nM	904 nM	
O=C1CCC(N2C(=O)c3ccccc3C2NCc2ccccc2)C(=O)N1 (stereo not drawn) [Compound C10239, 3-[1-(benzylamino)-3-oxo-isoindolin-2-yl]piperidine-2,6-dione]		1160 nM	
O=C1CCC(N2Cc3ccc(NC(=O)c4ccc5cnccc5n4)cc3C2=O)C(=O)N1 (stereo not drawn) [Compound C80393, N-[2-(2,6-dioxo-3-piperidyl)-3-oxo-isoindolin-5-yl]-1,6-naphthyridine-2-carboxamide]	7 nM		
O=C1c2ccccc2CC1n1ccc(=O)[nH]c1=O (stereo not drawn) [Compound C16899, 1-(1-oxoindan-2-yl)pyrimidine-2,4-dione]	10400 nM		
C#CCOCCOCCOCCOCC(=O)Nc1ccc(-c2cccc3c2C(=O)N(C2CCC(=O)NC2=O)C3)cc1 (stereo not drawn) [Compound 5.05]			194 nM
Cc1sc2c(c1C)C(c1ccc(Cl)cc1)=N[C@@H](CC(=O)NCCOCCOCCOCCOCCNC(=O)COc1cccc3c1CN(C1CCC(=O)NC1=O)C3=O)c1nnc(C)n1-2 (stereo partly drawn) [Compound 5.57]			109 nM
COc1ccc(Br)c2c1C(=O)N(C1CCC(=O)NC1=O)C2 (stereo not drawn) [Compound C74668, 3-(4-bromo-7-methoxy-1-oxo-isoindolin-2-yl)piperidine-2,6-dione]	1.89 nM		
O=C1CCC(N2C(=O)CC3(Cc4ccccc4C3)C2=O)C(=O)N1 (stereo not drawn) [Compound C64329, 1′-(2,6-dioxo-3-piperidyl)spiro[indane-2,3′-pyrrolidine]-2′,5′-dione]	15100 nM		
COC1c2ccccc2C(=O)N1C1CCC(=O)NC1=O (stereo not drawn) [Compound C56572, 3-(1-methoxy-3-oxo-isoindolin-2-yl)piperidine-2,6-dione]	8610 nM		
O=C1CCC(N2C(=O)C=C(c3ccccc3)C2=O)C(=O)N1 (stereo not drawn) [Compound C64319, 3-(2,5-dioxo-3-phenyl-pyrrol-1-yl)piperidine-2,6-dione]	42900 nM		
O=C1CCC(N2C(=O)C3CCCCC3C2=O)C(=O)N1 (stereo not drawn) [Compound C24191, 2-(2,6-dioxo-3-piperidyl)-3a,4,5,6,7,7a-hexahydroisoindole-1,3-dione]	17700 nM		
O=C1CCc2cc(C(=O)N3CCc4cccnc43)cnc2N1 [Compound C36128, 6-(2,3-dihydropyrrolo[2,3-b]pyridine-1-carbonyl)-3,4-dihydro-1H-1,8-naphthyridin-2-obe]	20300 nM		
Cc1sc2c(c1C)C(c1ccc(Cl)cc1)=N[C@@H](CC(=O)NCCNC(=O)COc1cccc3c1CN(C1CCC(=O)NC1=O)C3=O)c1nnc(C)n1-2 (stereo partly drawn) [Compound 5.60]			116 nM

The next lines start with the values.

IC50 (CRBN; [1])	EC50 (SALL4)	IC50 (CRBN; [2])	SMILES
6590 nM	2170 nM		O=C(O)CNc1cccc2c1C(=O)N(C1CCC(=O)NC1=O)C2 (stereo not drawn) [Compound C47998, 2-[[2-(2,6-dioxo-3-piperidyl)-3-oxo-isoindolin-4-yl]amino]acetic acid]
178 nM	270 nM		Cc1ccc2c(c1)C(=O)N(C1CCC(=O)NC1=O)C2 (stereo not drawn) [Compound C28620, 3-(6-methyl-1-oxo-isoindolin-2-yl)piperidine-2,6-dione]
2630 nM	1380 nM		O=C1CCC(N2Cc3ccc(NC(=O)c4cnc5nccn5c4)cc3C2=O)C(=O)N1 (stereo not drawn) [Compound C80396, N-[2-(2,6-dioxo-3-piperidyl)-3-oxo-isoindolin-5-yl]imidazo[1,2-a]pyrimidine-6-carboxamide]
1730 nM	595 nM		N#Cc1ccc2c(c1)CN(C1CCC(=O)NC1=O)C2=O (stereo not drawn) [Compound C48005, 2-(2,6-dioxo-3-piperidyl)-1-oxo-isoindoline-5-carbonitrile]
	3430 nM		O=C1CCC(N2Cc3ccc(NCC(=O)NC4CCOC4)cc3C2=O)C(=O)N1 (stereo not drawn) [Compound C12694, 2-[[2-(2,6-dioxo-3-piperidyl)-3-oxo-isoindolin-5-yl]amino]-N-tetrahydrofuran-3-yl-acetamide]
11200 nM	2630 nM		CC(=O)NCCNc1ccc2c(c1)CN(C1CCC(=O)NC1=O)C2=O (stereo not drawn) [Compound C35745, N-[2-[[2-(2,6-dioxo-3-piperidyl)-1-oxo-isoindolin-5-yl]amino]ethyl]acetamide]
8330 nM	2620 nM		O=C1CCC(N2Cc3ccc(NCC(=O)NC4CCOCC4)cc3C2=O)C(=O)N1 (stereo not drawn) [Compound C12693, 2-[[2-(2,6-dioxo-3-piperidyl)-3-oxo-isoindolin-5-yl]amino]-N-tetrahydropyran-4-yl-acetamide]
1420 nM	1010 nM		CC(Nc1ccc2c(c1)C(=O)N(C1CCC(=O)NC1=O)C2)C(=O)O (stereo not drawn) [Compound C84970, 2-[[2-(2,6-dioxo-3-piperidyl)-3-oxo-isoindolin-5-yl]amino]propanoic acid]
953 nM			O=C1CCC(N2Cc3ccc(C(F)(F)F)cc3C2=O)C(=O)N1 (stereo not drawn) [Compound C45748, 3-[1-oxo-6-(trifluoromethyl)isoindolin-2-yl]piperidine-2,6-dione]
599 nM			O=C(CNc1ccc2c(c1)C(=O)N(C1CCC(=O)NC1=O)C2)NCc1ccccc1 (stereo not drawn) [Compound C84966, N-benzyl-2-[[2-(2,6-dioxo-3-piperidyl)-3-oxo-isoindolin-5-yl]amino]acetamide]
148 nM			Cn1ncc2c(Nc3ccc4c(c3)C(=O)N(C3CCC(=O)NC3=O)C4)ncnc21 (stereo not drawn) [Compound C80383, 3-[6-[(1-methylpyrazolo[3,4-d]pyrimidin-4-yl)amino]-1-oxo-isoindolin-2-yl]piperidine-2,6-dione]
10400 nM			CC(=O)Nc1cccc2c1C(=O)N(C1CCC(=O)NC1=O)C2 (stereo not drawn) [Compound C29457, N-[2-(2,6-dioxo-3-piperidyl)-3-oxo-isoindolin-4-yl]acetamide]
633 nM			NCc1ccc2c(c1)C(=O)N(C1CCC(=O)NC1=O)C2 (stereo not drawn) [Compound C66979, 3-[6-(aminomethyl)-1-oxo-isoindolin-2-yl]piperidine-2,6-dione]
591 nM			CN(Cc1cnn(C)c1)C(=O)CNc1ccc2c(c1)C(=O)N(C1CCC(=O)NC1=O)C2 (stereo not drawn) [Compound C95333, 2-[[2-(2,6-dioxo-3-piperidyl)-3-oxo-isoindolin-5-yl]amino]-N-methyl-N-[(1-methylpyrazol-4-yl)methyl]acetamide]
208 nM			CC1CN(C)CCN1C(=O)CNc1ccc2c(c1)C(=O)N(C1CCC(=O)NC1=O)C2 (stereo not drawn) [Compound C12595, 3-[6-[[2-(2,4-dimethylpiperazin-1-yl)-2-oxo-ethyl]amino]-1-oxo-isoindolin-2-yl]piperidine-2,6-dione]
